Results from US8729089B2 (Gilead Sciences, Inc., priority 2006, dated 2014).

Assays:
[1] = tested on: HCV replicon in human hepatoma Huh-7 cell line; test: Anti-HCV replicon assay (EC50, luciferase); format: cell-based; details: Hepatitis C virus, Huh-7, 72 h
In short: (§1)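 Cytotoxicity (CC50) measured by CellTiter-Glo and antiviral activity (EC50) by luciferase signal from lysed cells, both by luminescence. Replicon-bearing Huh-7 cells, 6000 per well, incubated 3 days at 37 °C with threefold-diluted compound (0.5% DMSO for DMSO-dissolved compounds).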

[2] = CC50 assay (CellTiter-Glo) in Huh-7 HCV replicon cells; format: cell-based, human; details: human, 3 days incubation, CellTiter-Glo readout
In short: as §1

| SMILES | EC50 [1] [µM] | CC50 at 3 days [2] [µM] |
| --- | --- | --- |
| Nc1cnc(-c2ccc3nc(NCc4ccc(S(N)(=O)=O)cc4)nc(NCC(F)(F)F)c3n2)cn1 [Example 187, 4-{[6-(5-Amino-pyrazin-2-yl)-4-(2,2,2-trifluoro-ethylamino)-pyrido[3,2-d]pyrimidin-2-ylamino]-methyl}-benzenesulfonamide] | < 0.1 | > 25 |
| Nc1ncc(-c2ccc3nc(NCc4ccc(S(N)(=O)=O)cc4)nc(NCC(F)(F)F)c3n2)s1 [Example 188, 4-{[6-(2-Amino-thiazol-5-yl)-4-(2,2,2-trifluoro-ethylamino)-pyrido[3,2-d]pyrimidin-2-ylamino]-methyl}-benzenesulfonamide] | < 0.1 | 5 to 25 |
| NS(=O)(=O)c1ccc(CNc2nc(NCC(F)(F)F)c3nc(-c4cn[nH]c4)ccc3n2)cc1 [Example 189, 4-{[6-(1H-Pyrazol-4-yl)-4-(2,2,2-trifluoro-ethylamino)-pyrido[3,2-d]pyrimidin-2-ylamino]-methyl}-benzenesulfonamide] | < 0.1 | 5 to 25 |
| NS(=O)(=O)c1ccc(CNc2nc(NCC(F)(F)F)c3nc(-c4ccc(F)nc4)ccc3n2)cc1 [Example 190, 4-{[6-(6-Fluoro-pyridin-3-yl)-4-(2,2,2-trifluoro-ethylamino)-pyrido[3,2-d]pyrimidin-2-ylamino]-methyl}-benzenesulfonamide] | < 0.1 | < 5 |
| NS(=O)(=O)c1ccc(CNc2nc(NCC(F)(F)F)c3nc(-c4ccc(N5CCCC5=O)cc4)ccc3n2)cc1 [Example 191, 4-{[6-[4-(2-Oxo-pyrrolidin-1-yl)-phenyl]-4-(2,2,2-trifluoro-ethylamino)-pyrido[3,2-d]pyrimidin-2-ylamino]-methyl}-benzenesulfonamide] | < 0.1 | < 5 |
| NS(=O)(=O)c1ccc(CNc2nc(NCC(F)(F)F)c3nc(-c4ccc(Cl)cc4)ccc3n2)cc1 [Example 192, 4-{[6-(4-Chloro-phenyl)-4-(2,2,2-trifluoro-ethylamino)-pyrido[3,2-d]pyrimidin-2-ylamino]-methyl}-benzenesulfonamide] | < 0.1 | 5 to 25 |
| CC(C)N1CCC(NS(=O)(=O)c2cc(-c3ccc4nc(NCc5ccc(S(N)(=O)=O)cc5)nc(NCC(F)(F)F)c4n3)ccc2Cl)CC1 [Example 193, 2-Chloro-N-(1-isopropyl-piperidin-4-yl)-5-[2-(4-sulfamoyl-benzylamino)-4-(2,2,2-trifluoro-ethylamino)-pyrido[3,2-d]pyrimidin-6-yl]-benzenesulfonamide] | < 0.1 | < 5 |
| CC(C)(C)OC(=O)NC1CCN(S(=O)(=O)c2cc(-c3ccc4nc(NCc5ccc(S(N)(=O)=O)cc5)nc(NCC(F)(F)F)c4n3)ccc2Cl)CC1 [Example 194, (1-{2-Chloro-5-[2-(4-sulfamoyl-benzylamino)-4-(2,2,2-trifluoro-ethylamino)-pyrido[3,2-d]pyrimidin-6-yl]-benzenesulfonyl}-piperidin-4-yl)-carbamic acid tert-butyl ester] | < 0.1 | < 5 |
| NS(=O)(=O)c1ccc(CNc2nc(NCC(F)(F)F)c3nc(-c4ccc(Cl)c(S(=O)(=O)NCCN5CCCC5)c4)ccc3n2)cc1 [Example 195, 2-Chloro-N-(2-pyrrolidin-1-yl-ethyl)-5-[2-(4-sulfamoyl-benzylamino)-4-(2,2,2-trifluoro-ethylamino)-pyrido[3,2-d]pyrimidin-6-yl]-benzenesulfonamide] | < 0.1 | < 5 |
| CC(C)N1CCN(S(=O)(=O)c2cc(-c3ccc4nc(NCc5ccc(S(N)(=O)=O)cc5)nc(NCC(F)(F)F)c4n3)ccc2Cl)CC1 [Example 196, 4-{[6-[4-Chloro-3-(4-isopropyl-piperazine-1-sulfonyl)-phenyl]-4-(2,2,2-trifluoro-ethylamino)-pyrido[3,2-d]pyrimidin-2-ylamino]-methyl}-benzenesulfonamide] | < 0.1 | < 5 |
| NS(=O)(=O)c1ccc(CNc2nc(NCC(F)(F)F)c3nc(-c4ccc(Cl)c(S(=O)(=O)N[C@@H]5CCNC5)c4)ccc3n2)cc1 [Example 197, 2-Chloro-N-pyrrolidin-3-yl-5-[2-(4-sulfamoyl-benzylamino)-4-(2,2,2-trifluoro-ethylamino)-pyrido[3,2-d]pyrimidin-6-yl]-benzenesulfonamide] | < 0.1 | < 5 |
| COCCNS(=O)(=O)c1cc(-c2ccc3nc(NCc4ccc(S(N)(=O)=O)cc4)nc(NCC(F)(F)F)c3n2)ccc1Cl [Example 198, 2-Chloro-N-(2-methoxy-ethyl)-5-[2-(4-sulfamoyl-benzylamino)-4-(2,2,2-trifluoro-ethylamino)-pyrido[3,2-d]pyrimidin-6-yl]-benzenesulfonamide] | < 0.1 | 5 to 25 |
| CC(C)(CN1CCCC1)NC(=O)c1ccc(-c2ccc3nc(NCc4ccc(S(N)(=O)=O)cc4)nc(NCC(F)(F)F)c3n2)cc1 [Example 199, N-(1,1-Dimethyl-2-pyrrolidin-1-yl-ethyl)-4-[2-(4-sulfamoyl-benzylamino)-4-(2,2,2-trifluoro-ethylamino)-pyrido[3,2-d]pyrimidin-6-yl]-benzamide] | < 0.1 | < 5 |
| NS(=O)(=O)c1ccc(CNc2nc(NCC(F)(F)F)c3nc(-c4ccc(Cl)c(S(=O)(=O)NC5CCNCC5)c4)ccc3n2)cc1 [Example 200, 2-Chloro-N-piperidin-4-yl-5-[2-(4-sulfamoyl-benzylamino)-4-(2,2,2-trifluoro-ethylamino)-pyrido[3,2-d]pyrimidin-6-yl]-benzenesulfonamide] | < 0.1 | < 5 |
| CC(C)(C)OC(=O)N1CCC(NS(=O)(=O)c2cc(-c3ccc4nc(NCc5ccc(S(N)(=O)=O)cc5)nc(NCC(F)(F)F)c4n3)ccc2Cl)CC1 [Example 201, 4-{2-Chloro-5-[2-(4-sulfamoyl-benzylamino)-4-(2,2,2-trifluoro-ethylamino)-pyrido[3,2-d]pyrimidin-6-yl]-benzenesulfonylamino}-piperidine-1-carboxylic acid tert-butyl ester] | < 0.1 | 5 to 25 |
| NS(=O)(=O)c1ccc(CNc2nc(NCC(F)(F)F)c3nc(-c4ccc(Cl)c(S(N)(=O)=O)c4)ccc3n2)cc1 [Example 202, 2-Chloro-5-[2-(4-sulfamoyl-benzylamino)-4-(2,2,2-trifluoro-ethylamino)-pyrido[3,2-d]pyrimidin-6-yl]-benzenesulfonamide] | < 0.1 | < 5 |
| NS(=O)(=O)c1ccc(CNc2nc(NCC(F)(F)F)c3nc(-c4ccnnc4)ccc3n2)cc1 [Example 203, 4-{[6-Pyridazin-4-yl-4-(2,2,2-trifluoro-ethylamino)-pyrido[3,2-d]pyrimidin-2-ylamino]-methyl}-benzenesulfonamide] | < 0.1 | > 25 |
| CC(C)N1CCN(S(=O)(=O)c2cc(-c3ccc4nc(NCc5ccc(S(N)(=O)=O)cc5)nc(NCC(F)(F)F)c4n3)ccc2F)CC1 [Example 204, 4-{[6-[4-Fluoro-3-(4-isopropyl-piperazine-1-sulfonyl)-phenyl]-4-(2,2,2-trifluoro-ethylamino)-pyrido[3,2-d]pyrimidin-2-ylamino]-methyl}-benzenesulfonamide] | < 0.1 | < 5 |
| CC(C)(C)OC(=O)N1CC[C@@H](NS(=O)(=O)c2cc(-c3ccc4nc(NCc5ccc(S(N)(=O)=O)cc5)nc(NCC(F)(F)F)c4n3)ccc2F)C1 [Example 205, 3-{2-Fluoro-5-[2-(4-sulfamoyl-benzylamino)-4-(2,2,2-trifluoro-ethylamino)-pyrido[3,2-d]pyrimidin-6-yl]-benzenesulfonylamino}-pyrrolidine-1-carboxylic acid tert-butyl ester] | < 0.1 | < 5 |
| CN(CC(F)(F)F)c1nc(NCc2ccc(S(N)(=O)=O)cc2)nc2ccc(-c3ccc(F)cc3)nc12 [Example 206, 4-({6-(4-Fluoro-phenyl)-4-[methyl-(2,2,2-trifluoro-ethyl)-amino]-pyrido[3,2-d]pyrimidin-2-ylamino}-methyl)-benzenesulfonamide] | < 0.1 | < 5 |
| C[C@H](N)C(=O)Nc1ccc(-c2ccc3nc(NCc4ccc(S(N)(=O)=O)cc4)nc(NCC(F)(F)F)c3n2)cc1Cl [Example 207, 2-Amino-N-{2-chloro-4-[2-(4-sulfamoyl-benzylamino)-4-(2,2,2-trifluoro-ethylamino)-pyrido[3,2-d]pyrimidin-6-yl]-phenyl}-propionamide] | < 0.1 | < 5 |
| C[C@H](O)C(=O)Nc1ccc(-c2ccc3nc(NCc4ccc(S(N)(=O)=O)cc4)nc(NCC(F)(F)F)c3n2)cc1Cl [Example 208, N-{2-Chloro-4-[2-(4-sulfamoyl-benzylamino)-4-(2,2,2-trifluoro-ethylamino)-pyrido[3,2-d]pyrimidin-6-yl]-phenyl}-2-hydroxy-propionamide] | < 0.1 | 5 to 25 |
| C[C@H](O)C(=O)Nc1ccc(-c2ccc3nc(NCc4ccc(S(N)(=O)=O)cc4)nc(NCC(F)(F)F)c3n2)cc1F [Example 209, N-{2-Fluoro-4-[2-(4-sulfamoyl-benzylamino)-4-(2,2,2-trifluoro-ethylamino)-pyrido[3,2-d]pyrimidin-6-yl]-phenyl}-2-hydroxy-propionamide] | < 0.1 | < 5 |
| C[C@H](O)C(=O)Nc1ccc(-c2ccc3nc(NCc4ccc(S(N)(=O)=O)cc4)nc(NCC(F)(F)F)c3n2)cc1 [Example 210, 2-Hydroxy-N-{4-[2-(4-sulfamoyl-benzylamino)-4-(2,2,2-trifluoro-ethylamino)-pyrido[3,2-d]pyrimidin-6-yl]-phenyl}-propionamide] | < 0.1 | > 25 |
| COC(=O)Nc1ccc(-c2ccc3nc(NCc4ccc(S(N)(=O)=O)cc4)nc(NCC(F)(F)F)c3n2)cc1 [Example 211, {4-[2-(4-Sulfamoyl-benzylamino)-4-(2,2,2-trifluoro-ethylamino)-pyrido[3,2-d]pyrimidin-6-yl]-phenyl}-carbamic acid methyl ester] | < 0.1 | 5 to 25 |
